Entries after “also recorded” stand apart in the source; their conditions may differ.
Key:
xanthine oxidase = xanthine oxidase (Homo sapiens, UniProt P47989); assay: Control reaction for direct inhibition of xanthine oxidase (urate production at 290 nm); assay type: biochemical; details: 6 and 11 μM C7
Experimental: Superoxide dismutase (SOD) activity was assayed by following the inhibition of the reduction of an electron acceptor molecule in the presence of the free-radical generating system xanthine/xanthine oxidase (McCord et al. (1973) Superoxide and Superoxide Dismutase in “Oxidases and Related Redox Systems, vol. I, King et al. eds., University Park press, Baltimore, pp. 51-76). The assay mixture consisted of 50 mM sodium phosphate, pH 7.8, 120 μM xanthine, 0.2 units/ml xanthine oxidase, with acceptor molecule and salen manganese compound, as indicated. Assays were conducted at 27±0.2° C. using a water-jacketed cell holder in a Beckman DU7400 spectrophotometer. In most cases, oxidized cytochrome c, at 0.13 mg/ml, was employed as acceptor and its reduction was monitored spectrophotometrically at 550 nm. In some experiments, nitroblue tetrazolium (NBT), at 80 μM, was substituted for cytochrome c as the acceptor. NBT reduction was also monitored at 550 nm. An estimated extinction coefficient for NBT reduction, 20,800 M^−1cm^−1, determined empirically by exhaustive reduction of NBT in the reaction mixture described above, was employed where indicated. This value agreed well with reported extinction coefficients for reduced tetrazolium dyes. […] Conversion of xanthine to urate was calculated using ε290's of […] for urate and 4050 M^−1cm^−1 for xanthine. […]

[1] = tested on: isolated iron-overloaded rat hearts; assay: Isolated iron-overloaded rat hearts submitted to ischemia and reperfusion (function and electron microscopy)
Experimental: Rats received an intramuscular injection of 0.25 ml of an iron-dextran solution (100 g iron hydroxide, 99 g dextran, water up to 1 l) every third day during a 5-week period to achieve a significant iron overload in cardiac tissue. At the end of this treatment, rats were anesthetized with sodium pentobarbital (40 mg/kg) and heparin (1,000 IU/kg) was administered via a femoral vein. Hearts were then removed and rapidly perfused through the aorta according to the technique described by Langendorff [Langendorff, O., Pflügers Arch. 61: 291, 1895] at a constant flow rate of 11 ml/minute. The perfusion fluid was a modified Krebs-Henseleit buffer containing (in mmol/l): NaCl 118, KCl 5.9, NaHCO3 25, MgCl2 1.2, NaH2PO4 0.6, CaCl2 2.4, Glucose […]. pH was maintained at 7.4±0.05 when the perfusion medium was saturated with O2—CO2 (95%-5%) at 37° C. The perfusion apparatus was fully thermostated such that the temperature of the perfusion medium was 37.0±0.5° C. when it reached the aorta. An ultra-thin balloon was inserted in the left ventricle immediately after the initiation of aortic perfusion and was inflated so as to obtain an end-diastolic pressure of 5 mm Hg. A 15 minute stabilization period was initiated immediately following balloon placement. At the end of this period, systolic and diastolic ventricular pressures and heart beat rate (HR) were recorded through a pressure transducer linked to the ventricular balloon. Left Ventricular Developed Pressure (LVDP) was calculated by the difference between systolic and diastolic pressure and the product HR×LVDP was taken as an index of oxygen consumption. Hearts were then subjected to a 15 minute total global normothermic ischemia, followed by 15 minutes of reperfusion with the perfusion medium used initially. During this 15 minute reperfusion, heart rate, and diastolic and systolic pressures were monitored. Early ventricular fibrillations were analyzed 1 min. after the start of the reperfusion.
Three experimental groups were studied.
After the 15 minute reperfusion, 3 hearts in each group were prepared for electron microscopy by perfusion with 2.5% glutaraldehyde. Ultra-thin slices (500-600 Å thickness) were examined.
Mitochondria were classified into Type A (normal), Type B (swollen, unbroken), and Type C (ruptured membranes). Sarcomeres were classified into Type A (normal) and Type B (contacted and/or necrosis). The results are expressed as percentages.

pigs = assay: Acute lung injury in endotoxemic pigs; assay type: in vivo, pig
Experimental: All pigs were pre-treated at T=−18 h with Escherichia coli 0111:B4 LPS (20 μg/kg). Pigs in the RL group (n=4) received no further treatment. […] Lung wet-to-dry weight ratio was determined post-mortem. Lung lipid peroxidation was estimated fluorometrically by measuring thiobarbituric acid reactive products in the lipid fraction of lung parenchymal tissue harvested at T=300 min.

[2] = tested on: dopaminergic neurons in mouse striatum; assay: 6-OHDA model of neuronal injury in mice (3H-mazindol binding in striatal homogenates); assay type: in vivo
Experimental: 6-OHDA in mice. Adult male CFW mice were anesthetized with ketamine and rumpun, and immobilized in a stereotaxic device. 6-OHDA, as the hydrobromide salt, was dissolved in normal saline with 1% ascorbate, and 50 μg was administered in lateral ventricle by means of a 10 μl Hamilton syringe. […] Animals were sacrificed 7 days later, and neuronal pathology was assessed by measuring ^3H-mazindol binding in striatal homogenates.

[3] = 1 minute after reperfusion, DMTU 10 mM, C7 50 μM
[4] = 15 minutes after reperfusion, DMTU 10 mM, C7 50 μM
[5] = Before ischemia, DMTU 10 mM, C7 50 μM
[6] = electron microscopy after 15 minute reperfusion
[7] = T = 300 min, C7 10 mg/kg bolus at T=60 min then 10 mg/kg-h after LPS
[8] = C7 4×66 mg/kg i.p., 6-OHDA 50 μg i.c.v.

Chain of xanthine oxidase (P47989 whole entry, species assumed): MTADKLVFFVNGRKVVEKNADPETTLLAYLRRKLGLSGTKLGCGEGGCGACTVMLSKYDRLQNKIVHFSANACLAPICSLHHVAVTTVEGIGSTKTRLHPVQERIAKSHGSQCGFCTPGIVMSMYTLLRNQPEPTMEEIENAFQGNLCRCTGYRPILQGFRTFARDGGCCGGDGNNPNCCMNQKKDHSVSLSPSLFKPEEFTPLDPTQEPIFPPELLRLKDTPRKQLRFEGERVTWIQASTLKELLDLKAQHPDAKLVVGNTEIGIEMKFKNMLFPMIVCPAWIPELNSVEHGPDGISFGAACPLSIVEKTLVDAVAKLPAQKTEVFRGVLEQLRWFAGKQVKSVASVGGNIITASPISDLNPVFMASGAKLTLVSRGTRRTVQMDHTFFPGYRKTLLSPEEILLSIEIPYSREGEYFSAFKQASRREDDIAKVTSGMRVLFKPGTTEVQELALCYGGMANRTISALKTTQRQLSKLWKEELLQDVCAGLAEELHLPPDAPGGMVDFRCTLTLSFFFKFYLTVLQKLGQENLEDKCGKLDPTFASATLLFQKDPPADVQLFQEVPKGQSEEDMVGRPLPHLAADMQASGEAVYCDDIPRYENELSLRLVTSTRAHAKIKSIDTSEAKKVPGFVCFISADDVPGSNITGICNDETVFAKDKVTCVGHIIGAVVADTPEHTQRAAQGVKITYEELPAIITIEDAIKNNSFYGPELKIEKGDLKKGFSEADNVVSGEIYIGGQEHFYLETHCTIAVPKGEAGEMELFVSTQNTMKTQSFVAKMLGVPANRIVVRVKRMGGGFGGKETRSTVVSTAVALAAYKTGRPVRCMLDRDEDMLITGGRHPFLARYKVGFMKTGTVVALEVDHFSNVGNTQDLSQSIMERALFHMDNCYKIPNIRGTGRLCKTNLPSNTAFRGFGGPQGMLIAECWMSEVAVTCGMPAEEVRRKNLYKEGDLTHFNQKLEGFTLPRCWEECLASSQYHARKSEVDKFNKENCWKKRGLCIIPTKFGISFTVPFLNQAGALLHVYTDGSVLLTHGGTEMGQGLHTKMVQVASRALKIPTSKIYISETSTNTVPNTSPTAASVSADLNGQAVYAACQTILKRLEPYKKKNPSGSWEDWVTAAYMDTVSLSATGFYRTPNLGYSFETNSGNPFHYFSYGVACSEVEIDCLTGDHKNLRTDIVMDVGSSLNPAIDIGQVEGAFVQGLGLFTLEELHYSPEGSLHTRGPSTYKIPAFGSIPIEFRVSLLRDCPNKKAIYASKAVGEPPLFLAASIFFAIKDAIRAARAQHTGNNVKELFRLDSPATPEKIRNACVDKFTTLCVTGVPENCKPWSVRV

## [Cl][Mn]1[O]c2ccccc2C=NCCN=Cc2ccccc2[O]1 [Compound C7]
Xanthine oxidase
  effect on xanthine oxidase activity: no effect; also recorded: without affecting
[1]; [3]
  DP: 5.8 ± 0.5#± mm Hg
  HR: 130 ± 13 beats/min
  HR × LVDP: 9.9 ± 0.8#± ×10.3
  SP: 72 ± 8 mm Hg
  VF, number of hearts exhibiting episodes of ventricular fibrillation: 2/8
[1]; [4]
  DP: 8.3 ± 0.6 mm Hg
  HR: 241 ± 15 beats/min
  SP: 92 ± 15 mm Hg
[1]; [5]
  DP: 5.4 ± 0.3 mm Hg
  HR: 278 ± 7 beats/min
  HR × LVDP: 23.5 ± 0.9 ×10.3
  SP: 90 ± 2 mm Hg
[1]; C7 50 μM
  protection of hearts from ischemia/reoxygenation damage: effectively protected hearts
[1]; [6]
  Mitochondria Type A (normal): 31.0#± %
  Mitochondria Type C (ruptured membranes): 53.8#± %
  Sarcomeres Type A (normal): 60.6#± %
  Sarcomeres Type B (contacted and/or necrosis): 39.4#± %
pigs; [7]
  % Cdyn, dynamic pulmonary compliance: 78 ± 4%
  MDA, lung malondialdehyde level: 180 ± 27 pmols/mg dry weight
  PaO2, arterial oxygenation: 148 ± 22 mm Hg
  Ppa, mean pulmonary arterial pressure: 25 ± 3 mm Hg
  W/D, lung wet-to-dry weight ratio: 6.4 ± 0.9
pigs; administered 60 min after onset of endotoxemia
  protection against effects of endotoxin: protects against many of the deleterious effects of endotoxin
[2]; [8]
  mazindol binding, contralateral striatum: complete protection
  mazindol binding, ipsilateral striatum: significant reduction
[2]; concluded from effects of peripheral injections in in vivo models
  crossing of the blood brain barrier: crosses the blood brain barrier
[2]; mouse, in vivo
  protection from 6-OHDA-induced degeneration: protects dopaminergic neurons
